Converted amounts (≈) assume the structure as drawn. Structures can show the parent of a compound that is named as a salt. Where two headings read alike, the source gives them in different places.
Tests used:
Klebsiella pneumoniae [1] = experiment: Gradient Plate technique, MIC; format: cell-based; details: read-out: Minimum Inhibitory Concentration
Source text: (§1) The following Table II lists the minimum inhibitory concentration (MIC) for 7-[2-(2-thienyl)acetamido]-3-chloro-3-cephem-4-carboxylic acid against penicillin resistant Staphylococcus both in the presence of and absence of serum. The MIC values were obtained by the Gradient Plate technique carried out essentially as described by Bryson and Szybalski, Science, 116, 45 (1952).
(§2) In Table III, below, the MIC values for the test compound of Tables I and II against representative gram-negative organisms is presented. The data were obtained by the Gradient Plate technique.
(§3) The minimum inhibitory concentrations for 7-[2-(2-thienyl)acetamido]-3-bromo-3-cephem-4-carboxylic acid against representative gram-negative bacteria is presented in Table VI. The data were obtained by the Gradient Plate Method.
(§4) Tables VII and VIII list the minimum inhibitory concentrations of the test compound effective against representative penicillin resistant Staphylococcus strains, while […] the MIC values obtained against representative gram-negative microorganisms. The data were obtained by the Gradient Plate method.

Salmonella heidelberg = experiment: Gradient Plate technique, MIC; format: cell-based; details: Salmonella enterica, read-out: Minimum Inhibitory Concentration
Source text: as §1, §2, §3, §4

Pseudomonas aeruginosa = experiment: Gradient Plate technique, MIC; format: cell-based; details: read-out: Minimum Inhibitory Concentration
Source text: as §1, §2, §3, §4

Shigella sp. = experiment: Gradient Plate technique, MIC; format: cell-based; details: read-out: Minimum Inhibitory Concentration
Source text: as §1, §2, §3, §4

Serratia marcescens = experiment: Gradient Plate technique, MIC; format: cell-based; details: read-out: Minimum Inhibitory Concentration
Source text: as §1, §2, §3, §4

Escherichia coli [2] = experiment: Gradient Plate technique, MIC; format: cell-based; details: read-out: Minimum Inhibitory Concentration
Source text: as §1, §2, §3, §4

Aerobacter aerogenes = experiment: Gradient Plate technique, MIC; format: cell-based; details: Klebsiella aerogenes, read-out: Minimum Inhibitory Concentration
Source text: as §1, §2, §3, §4

Salmonella gallinarum = experiment: standard disc-plate method, zone of inhibition; format: cell-based; details: Salmonella enterica, GALLINARUM, Table I, read-out: Zone of Inhibition (diameter in mm)
Source text: (§5) The in vitro antimicrobial activity of the 3-halo cephalosporins is illustrated by the data in the following tables. Table I contains the antimicrobial activity for 7-[2-(2-thienyl)acetamido]-3-chloro-3-cephem-4-carboxylic acid obtained in the standard Disc-plate method. The numerical values are the diameter in millimeters of the zones of inhibition observed with the named organisms.
(§6) In Table IV below, the in vitro antimicrobial activity of 7-[2-(2-thienyl)acetamido]-3-bromo-3-cephem-4-carboxylic acid is presented for several illustrative microorganisms. The data presented were obtained in the standard disc-plate method with the numerical values recording the diameter in millimeters of the zones of inhibition observed with the named microorganisms.

[3] = system: Pseudomonas solanacearcum; experiment: standard disc-plate method, zone of inhibition; format: cell-based; details: Pseudomonas, Table I, read-out: Zone of Inhibition (diameter in mm)
Source text: as §5, §6

Mycobacterium avium = experiment: standard disc-plate method, zone of inhibition; format: cell-based; details: 1.0 mg/ml, Table I, read-out: Zone of Inhibition (diameter in mm)
Source text: as §5, §6

Klebsiella pneumoniae [4] = experiment: standard disc-plate method, zone of inhibition; format: cell-based; details: Table I, read-out: Zone of Inhibition (diameter in mm)
Source text: as §5, §6

Bacillus subtilis = experiment: standard disc-plate method, zone of inhibition; format: cell-based; details: Table I, read-out: Zone of Inhibition (diameter in mm)
Source text: as §5, §6

Staphylococcus aureus = experiment: standard disc-plate method, zone of inhibition; format: cell-based; details: Table I, read-out: Zone of Inhibition (diameter in mm)
Source text: as §5, §6

Proteus vulgaris = experiment: standard disc-plate method, zone of inhibition; format: cell-based; details: 1.0 mg/ml, Table I, read-out: Zone of Inhibition (diameter in mm)
Source text: as §5, §6

Escherichia coli [5] = experiment: standard disc-plate method, zone of inhibition; format: cell-based; details: Table I, read-out: Zone of Inhibition (diameter in mm)
Source text: as §5, §6

Sarcina lutea = experiment: standard disc-plate method, zone of inhibition; format: cell-based; details: Micrococcus luteus, Table I, read-out: Zone of Inhibition (diameter in mm)
Source text: as §5, §6

[6] = system: Penicillin Resistant Staphylococcus; experiment: Gradient Plate technique, MIC; format: cell-based; details: read-out: Minimum Inhibitory Concentration
Source text: The following Table II lists the minimum inhibitory concentration (MIC) for 7-[2-(2-thienyl)acetamido]-3-chloro-3-cephem-4-carboxylic acid against penicillin resistant Staphylococcus both in the presence of and absence of serum. The MIC values were obtained by the Gradient Plate technique carried out essentially as described by Bryson and Szybalski, Science, 116, 45 (1952). […]

Escherichia coli [7] = experiment: standard disc-plate method, zone of inhibition; format: cell-based; design: key: H: hazy zone of inhibition; Tr: trace zone of inhibition; details: 0.01 mg/ml; Table I
Source text: as §5, §6

[8] = system: Methicillin resistant Staphylococcus; experiment: Gradient Plate technique, MIC; format: cell-based; details: Clinical Isolate X400 (methicillin resistant); for Minimum Inhibitory Concentration: Serum; for MIC: Staphylococcus, No Serum, read-out: Minimum Inhibitory Concentration
Citrobacter freundii = experiment: standard agar dilution method, MIC; format: cell-based; details: read-out: Minimum Inhibitory Concentration
Source text: (§7) In Table IX which follows, the MIC values against a spectrum of microorganisms obtained with the test compound are presented. The test method was the standard agar dilution method.

[9] = system: Enterobacter aerogenes EB17; experiment: standard agar dilution method, MIC; format: cell-based; details: Klebsiella aerogenes, read-out: Minimum Inhibitory Concentration
Source text: as §7

Salmonella typhosa SA12 = experiment: standard agar dilution method, MIC; format: cell-based; details: Salmonella enterica, read-out: Minimum Inhibitory Concentration
Source text: as §7

[10] = system: Trichophyton mentagrophytes 27; experiment: standard agar dilution method, MIC; format: cell-based; details: read-out: Minimum Inhibitory Concentration
Source text: as §7

Candida tropicalis A17 = experiment: standard agar dilution method, MIC; format: cell-based; details: read-out: Minimum Inhibitory Concentration
Source text: as §7

[11] = system: Pseudomonas solanacearcum X185; experiment: standard agar dilution method, MIC; format: cell-based; details: read-out: Minimum Inhibitory Concentration
Source text: as §7

Salmonella typhimurium = experiment: standard agar dilution method, MIC; format: cell-based; details: Salmonella enterica, read-out: Minimum Inhibitory Concentration
Source text: as §7

[12] = system: Streptococcus faecalis X66; experiment: standard agar dilution method, MIC; format: cell-based; details: Enterococcus faecalis, read-out: Minimum Inhibitory Concentration
Source text: as §7

Erwinia amylovora = experiment: standard agar dilution method, MIC; format: cell-based; details: read-out: Minimum Inhibitory Concentration
Source text: as §7

Proteus morganii PR15 = experiment: standard agar dilution method, MIC; format: cell-based; details: Morganella morganii, read-out: Minimum Inhibitory Concentration
Source text: as §7

[13] = system: Bordetella bronchiseptica 16; experiment: standard agar dilution method, MIC; format: cell-based; details: read-out: Minimum Inhibitory Concentration
Source text: as §7

[14] = system: Staphylococcus aureus 3074; experiment: standard agar dilution method, MIC; format: cell-based; details: read-out: Minimum Inhibitory Concentration
Source text: as §7

Serratia marcescens SE3 = experiment: standard agar dilution method, MIC; format: cell-based; details: read-out: Minimum Inhibitory Concentration
Source text: as §7

[15] = system: Pseudomonas aeruginosa X239; experiment: standard agar dilution method, MIC; format: cell-based; details: read-out: Minimum Inhibitory Concentration
Source text: as §7

Escherichia coli EC14 = experiment: standard agar dilution method, MIC; format: cell-based; details: read-out: Minimum Inhibitory Concentration
Source text: as §7

[16] = system: Klebsiella pneumoniae KL14; experiment: standard agar dilution method, MIC; format: cell-based; details: read-out: Minimum Inhibitory Concentration
Source text: as §7

Aspergillus flavus E = experiment: standard agar dilution method, MIC; format: cell-based; details: read-out: Minimum Inhibitory Concentration
Source text: as §7

Ceratocystis ulmi = experiment: standard agar dilution method, MIC; format: cell-based; details: read-out: Minimum Inhibitory Concentration
Source text: as §7

[17] = system: Staphylococcus aureus 3055; experiment: standard agar dilution method, MIC; format: cell-based; details: read-out: Minimum Inhibitory Concentration
Source text: as §7

Electrometric titration = format: physicochemical; details: 66% aqueous dmf, read-out: pKa
[18] = Clinical Isolate V 32, No Serum
[19] = Clinical Isolate V 41, No Serum
[20] = Clinical Isolate V 84, No Serum
[21] = Clinical Isolate X 1.1, No Serum

## O=C(Cc1cccs1)NC1C(=O)N2C(C(=O)O)=C(Cl)CS[C@H]12 (some centres unmarked) [7-[2-(2-Thienyl)acetamido]-3-chloro-3-cephem-4-carboxylic acid]
Klebsiella pneumoniae [1]
  MIC: 0.6 µg/mL (≈ 1.67 µM)
Salmonella heidelberg
  MIC: 0.8 µg/mL (≈ 2.23 µM)
Pseudomonas aeruginosa
  MIC: > 200 µg/mL
Shigella sp.
  MIC: 25 µg/mL (≈ 69.7 µM)
Serratia marcescens
  MIC: > 200 µg/mL
Escherichia coli [2]
  MIC: 18.5 µg/mL (≈ 51.6 µM)
Aerobacter aerogenes
  MIC: 0.8 µg/mL (≈ 2.23 µM)
Salmonella gallinarum; 0.1 mg/ml
  zone of inhibition at 100 µg/mL: 22 mm
Salmonella gallinarum; 1.0 mg/ml
  zone of inhibition at 1000 µg/mL: 32 mm
[3]; 0.1 mg/ml
  zone of inhibition at 100 µg/mL: 21 mm
[3]; 1.0 mg/ml
  zone of inhibition at 1000 µg/mL: 28 mm
Mycobacterium avium
  zone of inhibition at 1000 µg/mL: 14 mm
Klebsiella pneumoniae [4]; 0.01 mg/ml
  zone of inhibition at 10 µg/mL: 13 mm
Klebsiella pneumoniae [4]; 0.1 mg/ml
  zone of inhibition at 100 µg/mL: 27 mm
Klebsiella pneumoniae [4]; 1.0 mg/ml
  zone of inhibition at 1000 µg/mL: 36 mm
Bacillus subtilis; 0.01 mg/ml
  zone of inhibition at 10 µg/mL: 24 mm
Bacillus subtilis; 0.1 mg/ml
  zone of inhibition at 100 µg/mL: 40 mm
Bacillus subtilis; 1.0 mg/ml
  zone of inhibition at 1000 µg/mL: 48 mm
Staphylococcus aureus; 0.01 mg/ml
  zone of inhibition at 10 µg/mL: 20 mm
Staphylococcus aureus; 0.1 mg/ml
  zone of inhibition at 100 µg/mL: 29 mm
Staphylococcus aureus; 1.0 mg/ml
  zone of inhibition at 1000 µg/mL: 31 mm
Proteus vulgaris
  zone of inhibition at 1000 µg/mL: 17 mm
Escherichia coli [5]; 0.1 mg/ml
  zone of inhibition at 100 µg/mL: 19 mm
Escherichia coli [5]; 1.0 mg/ml
  zone of inhibition at 1000 µg/mL: 24 mm
Sarcina lutea; 0.01 mg/ml
  zone of inhibition at 10 µg/mL: 21 mm
Sarcina lutea; 0.1 mg/ml
  zone of inhibition at 100 µg/mL: 28 mm
Sarcina lutea; 1.0 mg/ml
  zone of inhibition at 1000 µg/mL: 37 mm
[6]; [18]
  MIC: 8.4 µg/mL (≈ 23.4 µM)
[6]; Clinical Isolate V 32, Serum
  MIC: > 20 µg/mL
[6]; [19]
  MIC: 5 µg/mL (≈ 13.9 µM)
[6]; Clinical Isolate V 41, Serum
  MIC: 7 µg/mL (≈ 19.5 µM)
[6]; [20]
  MIC: 0.8 µg/mL (≈ 2.23 µM)
[6]; Clinical Isolate V 84, Serum
  MIC: 1 µg/mL (≈ 2.79 µM)
[6]; [21]
  MIC: 0.2 µg/mL (≈ 0.557 µM)
[6]; Clinical Isolate X 1.1, Serum
  MIC: < 0.1 µg/mL
Escherichia coli [7]
  Zone of Inhibition (diameter in mm): Tr
[8]
  Minimum Inhibitory Concentration: > 20 µg/mL
  MIC: > 20 µg/mL

## O=CO[C@@H](C(=O)NC1C(=O)N2C(C(=O)O)=C(Cl)CSC12)c1ccccc1 (stereo partly drawn) [7-[O-(Formyl)-D-mandelamido]-3-chloro-3-cephem-4-carboxylic acid]
Klebsiella pneumoniae [1]
  MIC: 1 µg/mL (≈ 2.52 µM)
Salmonella heidelberg
  MIC: 0.6 µg/mL (≈ 1.51 µM)
Pseudomonas aeruginosa
  MIC: > 200 µg/mL
Shigella sp.
  MIC: 4 µg/mL (≈ 10.1 µM)
Serratia marcescens
  MIC: 160 µg/mL (≈ 403 µM)
Escherichia coli [2]
  MIC: 6.3 µg/mL (≈ 15.9 µM)
Aerobacter aerogenes
  MIC: 0.7 µg/mL (≈ 1.76 µM)
Citrobacter freundii
  MIC: > 128 µg/mL
[9]
  MIC: 128 µg/mL (≈ 323 µM)
Salmonella typhosa SA12
  MIC: 0.5 µg/mL (≈ 1.26 µM)
[10]
  MIC: > 128 µg/mL
Candida tropicalis A17
  MIC: > 128 µg/mL
[11]
  MIC: 128 µg/mL (≈ 323 µM)
Salmonella typhimurium
  MIC: 1 µg/mL (≈ 2.52 µM)
[12]
  MIC: 64 µg/mL (≈ 161 µM)
Erwinia amylovora
  MIC: > 128 µg/mL
Proteus morganii PR15
  MIC: 4 µg/mL (≈ 10.1 µM)
[13]
  MIC: 64 µg/mL (≈ 161 µM)
[14]
  MIC: 1 µg/mL (≈ 2.52 µM)
Serratia marcescens SE3
  MIC: > 128 µg/mL
[15]
  MIC: 128 µg/mL (≈ 323 µM)
Escherichia coli EC14
  MIC: 8 µg/mL (≈ 20.2 µM)
[16]
  MIC: 4 µg/mL (≈ 10.1 µM)
Aspergillus flavus E
  MIC: > 128 µg/mL
Ceratocystis ulmi
  MIC: > 128 µg/mL
[17]
  MIC: > 0.25 µg/mL
[6]; [18]
  MIC: 8 µg/mL (≈ 20.2 µM)
[6]; Clinical Isolate V 32, Serum
  MIC: > 20 µg/mL
[6]; [19]
  MIC: 5.8 µg/mL (≈ 14.6 µM)
[6]; Clinical Isolate V 41, Serum
  MIC: > 20 µg/mL
[6]; [20]
  MIC: 0.4 µg/mL (≈ 1.01 µM)
[6]; Clinical Isolate V 84, Serum
  MIC: 1 µg/mL (≈ 2.52 µM)
[6]; [21]
  MIC: < 0.1 µg/mL
[6]; Clinical Isolate X 1.1, Serum
  MIC: < 0.1 µg/mL
Electrometric titration; only or first pKa
  pKa: 4.5
[8]
  Minimum Inhibitory Concentration: > 20 µg/mL
  MIC: > 20 µg/mL

## NC1C(=O)N2C(C(=O)OCc3ccc([N+](=O)[O-])cc3)=C(O)CS[C@H]12 (some centres unmarked) [Example 5, p-Nitrobenzyl 7-amino-3-hydroxy-3-cephem-4-carboxylate hydrochloride]
Electrometric titration; 66% DMF, second pKa
  pKa: 6.3
Electrometric titration; only or first pKa
  pKa: 4
